Laboratory results as given in patent publication US10611748B2, “Xanthone derivatives for the treatment of hepatitis B virus disease” (Hoffmann-La Roche Inc., priority 2017, dated 2020).

Experiments:
[1] = test system: cccDNA level in HepDES19 cells; test: cccDNA Southern Blot assay; type: cell-based, HBV; conditions: 5 days' compound treatment, Hirt DNA, serial dilutions
Description: HepDES19 cells were seeded at 4×10^6 cells per T150 in the culture medium (Dulbecco's Modified Eagle Medium: Nutrient Mixture F-12 (DMEM:F12, Gibco Cat. 11320-82), 10% Fetal Bovine Serum (FBS, Clontech Cat. 631101), 0.1 mM Non-Essential Amino Acids Solution (NEAA, Gibco Cat. 11140-050), […] Penicillin-Streptomycin (PS, Invitrogen Cat. 15140-163), 500 μg/mL Geneticin (G418, Invitrogen Cat. 10131-027) in the absence of Tet for 8 days. These cells were seeded at the density of 1×10^6 cells per well in 6-well plate. At 24 hrs after seeding, serial dilutions of compounds made with DMSO (Sigma, Cat. D2650) were further diluted with the same culture medium as described above before they were added to the cells to reach desired final compound concentrations and 1% DMSO concentration. After 5 days' compound treatment, the cells growing in one well from 6-well plate were re-suspended with 500 μL re-suspension buffer (50 mM tris[hydroxymethyl]aminomethane pH 7.5), 10 mM ethylenediaminetetraacetic acid (EDTA), 50 μg/mL RNase A (Qiagen, Cat. 158922). 500 μL of 1.2% sodium dodecyl sulfate (SDS) was then added into the re-suspended cells to lyse the cells. After 15 minutes' incubation, 700 μL precipitation buffer (3M cesium chloride, 1M potassium acetate, 0.67M acetic acid) was added and the lysate was incubated at 4° C. for 2 h. The lysate was centrifuged at 15000 revolutions per minute (RPM) at 4° C. for 15 minutes. The supernatant was collected and loaded onto Qiagen miniprep columns (QIAprep spin Mini prep kit, Cat. No. 27016). After centrifugation for 1 minute at 15000 RPM, the column was washed once with 750 µL wash buffer PE from QIAprep spin Mini prep kit. 80 μL of double distilled water was loaded to the columns to elute Hirt DNA.
Hirt DNA of each sample was loaded into 1.2% lx tris-acetate electrophoresis (TAE) agarose gel and separated at 90 voltages for 3 hours. The gel was then treated in 50 mM NaAc—HAc, pH4.2 for 30 min at room temperature (RT), and then denatured by soaking in denaturation buffer (0.5 M sodium hydroxide, 1.5 M sodium chloride) at RT for 30-45 min. The gel was then treated with neutralization buffer (1M tris[hydroxymethyl]aminomethane pH7.4 and 1.5M NaCl) at RT for 30 to 45 min.
The gel was transferred onto a pre-wet Nylon membrane (GE life science, Hybond N+) by capillary transfer method overnight, followed by UV crosslinking. The membrane was transferred into a hybridization tube, then rinsed with double distilled water at 60° C. for 5 mins. 10 mL of hybridization buffer (Lab kits, China) was added, the resulting sample was rotated in hybridization oven at 60° C. for 1 hour. Digoxigenin (DIG)-labelled HBV probe (SEQ ID NO: 1) was denatured at 95° C. for 10 minutes, and then 7 μL of denatured probe was added to the hybridization tube, which was rotated in hybridization oven at 60° C. overnight.
On the second day, the membrane was washed according to the procedure of DIG wash and block buffer set kit (Roche, Cat. 11 585 762 001), and then incubated with 50 mL antibody solution (Antibody anti-Digoxigenin-AP Fab fragment (Roche Cat. 11093274910) diluted in fresh 1× blocking buffer at 1:10,000) for 1 hour. The membrane was washed with 50 mL washing buffer (1× Maleic buffer with 0.3% Tween-20) for 15 minutes twice, and equilibrated with 20 mL detection buffer (0.1M tris[hydroxymethyl]aminomethane pH9.5, 0.1M sodium chloride) for 5 minutes. CDP-Star substrate (Roche, Cat. 12041677001) was added to the membrane for 5 minutes, and then the membrane was scanned by Bio-Rad Visualize Image System (Biorad, ChemiDoc-MP, Serial No. 731BR00916).

[2] = test system: extracellular HBeAg level (surrogate marker for cccDNA) in HepDES19 cells; test: HepDES19 primary screen assay; type: cell-based, HBV; conditions: Hepatitis B virus, 120 h, 5 days compound incubation, HBeAg ELISA
Excerpt: The assay was employed to primarily screen for novel cccDNA inhibitors. HepDES19 is an engineered cell line which contains a 1.1 unit length HBV genome, and pgRNA transcription from the transgene is controlled by Tetracycline (Tet). In the absence of Tet, pgRNA transcription will be induced, but HBV e antigen (HBeAg) could not be produced from this pgRNA due to the fact that the very short leader sequence before the HBeAg start codondisrupted the start codon. Only after cccDNA is formed, the missing leader sequence and start codon mutation would be restored from the 3′-terminal redundancy of pgRNA, and then HBeAg could be synthesized. Therefore, HBeAg could be used as a surrogate marker for cccDNA (Zhou, T. et al., Antiviral Res(2006), 72(2), 116-124; Guo, H. et al., J. Virol (2007), 81(22), 12472-12484).
HepDES19 cells were seeded at 2×10^6 cells per T150 flask and cultured with the culture medium (Dulbecco's Modified Eagle Medium: Nutrient Mixture F-12 (DMEM:F12, Gibco Cat. 11320-82), 10% Fetal Bovine Serum (FBS, Clontech Cat. 631101), 0.1 mM Non-Essential Amino Acids Solution (NEAA, Gibco Cat. 11140-050), 50 μg/mL Penicillin-Streptomycin (PS, Invitrogen Cat. 15140-163), 500 μg/mL Geneticin (G418, Invitrogen Cat. 10131-027) containing 3 μg/mL Tet (Sigma, Cat. 87128) for 5 days. Cells were then seeded at 4×10^6 cells per T150 in the same culture medium as described above in the absence of Tet for 8 days. Cells were then harvested and frozen at density of 2×10^6 cells per mL. For compound testing, the frozen cells were thawed and seeded into 96-well plates at a density of 6×10^4 cells per well. At 24 hrs after seeding, half log serial dilutions of compounds made with Dimethyl sulfoxide (DMSO, Sigma, Cat. D2650) were further diluted with the same culture medium as described above before they were added to the cells to reach desired final compound concentrations and 1% DMSO concentration. Plates were then incubated at 37° C. for another 5 days before measurement of HBeAg level and cell viability. Extracellular HBeAg level were measured with enzyme-linked immunosorbent assay (ELISA) kit (Shanghai Kehua Diagnostic Medical Products Co., Ltd). Cell viability was assessed using Cell Counting Kit-8 (Donjindo, Cat. CK04-20). IC50 values were derived from the dose-response curve using 4 parameter logistic curve fit method.
The compounds of the present invention were tested for their capacity to inhibit extracellular HBeAg level as described herein.

[3] = test system: extracellular HBsAg level in HBV-infected PHH; test: Cryopreserved primary human hepatocytes (PHH) assay, HBsAg; type: cell-based; conditions: Hepatitis B virus, Hepatocyte, 216 h, read-out: HBsAg IC50
Description: Cryopreserved PHH (BioreclamationIVT, Lot YJM) was thawed at 37° C. and gently transferred into pre-warmed InVitroGRO HT medium (BioreclamationIVT, Cat. S03317). The mixture was centrifuged at 70 relative centrifugal force (RCF) for 3 minutes at RT, and the supernatant was discarded. Pre-warmed InVitroGRO CP medium (BioreclamationIVT, Cat # S03316) was added to the cell pellet to gently re-suspend cells. The cells were seeded at the density of 5.8×10^4 cells per well to collagen I coated 96-well plate (Gibco, Cat. A1142803) with the InVitroGRO CP medium. All plates were incubated at 37° C. with 5% CO2 and 85% humidity.
At 20 hours after plating, the medium was changed to PHH culture medium (Dulbecco's Modified Eagle Medium (DMEM)/F12 (1:1) (Gibco, Cat. 11320-033), 10% fetal bovine serum (Gibco Cat. 10099141), 100 U/mL penicillin, 100 μg/mL streptomycin (Gibco, Cat. 151401-122), 5 ng/mL human epidermal growth factor (Invitrogen Cat. PHG0311L), 20 ng/mL dexamethasone (Sigma, Cat. D4902) and 250 ng/mL human recombinant insulin (Gibco, Cat. 12585-014)). And the cells were incubated at 37° C. with 5% CO2 and 85% humidity for 4 hours. The medium was then changed to pre-warmed PHH culture medium containing 4% polyethylene glycol (PEG) MW8000 (Sigma, Cat. P1458-50ML) and 1% DMSO (Sigma, Cat. D2650). 5.8×10^6 genomic equivalents of HBV were added into the medium.
At 24 hours post-infection, the cells were gently washed with PBS and refreshed with PHH culture medium supplemented with 1% DMSO, and 0.25 mg/mL Matrix gel (Corning, Cat. 356237) at 200 μL per well. All plates were immediately placed in at 37° C. CO2 incubator.
24 hours later, serial dilutions of compounds made with DMSO were further diluted with the same culture medium (PHH culture medium supplemented with 1% DMSO and 0.25 mg/mL Matrix gel as described above) before they were added to the cells to reach desired final compound concentrations and 1% DMSO concentration. The medium containing the compounds were refreshed every three days.
At 9 days post-compound treatment, extracellular HBsAg level were measured with Chemiluminescence Immuno Assay (CLIA) kit (Autobio, HBsAg Quantitative CLIA). Extracellular HBV DNA was extracted by MagNA Pure 96 system (Roche) and then determined by quantitative PCR with the following primers and probe: HBV-Forward Primer (SEQ ID NO:2): […] (5′ to 3′); HBV-Reverse Primer (SEQ ID NO:3): […](5′ to 3′); HBV-Probe: 5′+tetramethylrhodamine+SEQ ID NO:4+black hole quencher 2-3′, wherein SEQ ID NO:4 is […].
HBsAg IC50 and HBV DNA IC50 values were derived from the dose-response curve using 4 parameter logistic curve fit method.

Compound	cccDNA level in HepDES19 cells (Southern Blot) [1]	IC50 [2] [nM]	IC50 [3] [nM]
O=C(O)C1CCN(c2ccc3c(=O)c4cccc(Br)c4oc3c2)C1 (centres unmarked) [Example 7, 1-(5-bromo-9-oxo-xanthen-3-yl)pyrrolidine-3-carboxylic acid]	dose-dependently reduced cccDNA level	3560	–
O=C(O)C1CCN(c2ccc3c(=O)c4c(F)ccc(Cl)c4oc3c2)C1 (centres unmarked) [Example 66, 1-(5-chloro-8-fluoro-9-oxo-xanthen-3-yl)pyrrolidine-3-carboxylic Acid]	–	1910	8480
O=C(O)C1CCN(c2ccc3c(=O)c4c(C(F)(F)F)ccc(Cl)c4oc3c2)C1 (centres unmarked) [Example 67, 1-[5-chloro-9-oxo-8-(trifluoromethyl)xanthen-3-yl]pyrrolidine-3-carboxylic Acid]	–	390	1290
COc1cc(O[C@@H]2O[C@H](CO)[C@@H](O)[C@H](O)[C@H]2O)c2c(=O)c3c(O)ccc(O)c3oc2c1 [Swertianolin, 5,8-dihydroxy-3-methoxy-1-[(2S,3R,4S,5S,6R)-3,4,5-trihydroxy-6-(hydroxymethyl)tetrahydropyran-2-yl]oxy-xanthen-9-one, reference compound]	–	> 100000	> 100000
